This note sets out measurements from ChEMBL document CHEMBL3244328, “trans-2,3b,4,5,7,8b,9,10-Octahydronaphtho[1,2-c:5,6-c']dipyrazole, a new orally active antiallergic compound” (1978).

The source made the active and inactive calls. No cut-off for these calls is given here.

Holding throughout (format): functional
Assay [1] has as its system Rattus norvegicus. Description: Antiallergic activity in Sprague-Dawley rat assessed as inhibition of mouse antiserum-induced passive cutaneous anaphylaxis at 200 mg/kg, po administered 1 hr before antiserum challenge measured after 6 hrs by Evans blue staining relative to control. The note with it: read-out: INH.
Assay [2] deals with Rattus norvegicus. Description: Antiallergic activity in Sprague-Dawley rat assessed as inhibition of mouse antiserum-induced passive cutaneous anaphylaxis at 100 mg/kg, po administered 1 hr before antiserum challenge measured after 3 hrs by Evans blue staining relative to control.
Assay [3] relates to Rattus norvegicus. The assay is described as follows: Antiallergic activity in Sprague-Dawley rat assessed as inhibition of mouse antiserum-induced passive cutaneous anaphylaxis at 25 mg/kg, po administered 1 hr before antiserum challenge measured after 30 mins by Evans blue staining relative to control. Conditions: read-out: INH.
Assay [4] relates to Rattus norvegicus. Description: Antiallergic activity in Sprague-Dawley rat assessed as inhibition of mouse antiserum-induced passive cutaneous anaphylaxis at 5 to 6 times ED50 mg/kg, po administered 1 hr before antiserum challenge measured after 30 mins by Evans blue staining relative to control.
In assay [5] the test system is Rattus norvegicus. The assay is described as follows: Antiallergic activity in po dosed Sprague-Dawley rat assessed as inhibition of mouse antiserum-induced passive cutaneous anaphylaxis administered 1 hr before antiserum challenge measured after 30 mins by Evans blue staining.
The test system of assay [6] is Rattus norvegicus. Description: Antiallergic activity in Sprague-Dawley rat assessed as inhibition of mouse antiserum-induced passive cutaneous anaphylaxis at 50 mg/kg, po administered 1 hr before antiserum challenge measured after 30 mins by Evans blue staining relative to control. Conditions: read-out: INH.

For `c1[nH]nc2c1CC[C@H]1c3n[nH]cc3CC[C@H]21`, the inhibition in vivo at 200 mg/kg with Rattus norvegicus [1] came to 63%. Also, the inhibition in vivo at 100 mg/kg with Rattus norvegicus [2] (read-out: INH) came to 65%. For the same molecule, the inhibition in vivo at 25 mg/kg in the assay on Rattus norvegicus [3] is 33%. Moreover, in the assay on Rattus norvegicus [4], the “inhibition (INH)” value was found to be 60%. For the same molecule, the ED50 – broadly, the midpoint of the dose-response relation – with Rattus norvegicus [5] worked out at 35 mg/kg. Moreover, the inhibition in vivo at 50 mg/kg with Rattus norvegicus [6] was 61%.

With `c1ccc(-n2ncc3c2[C@H]2CCc4cnn(-c5ccccc5)c4[C@@H]2CC3)cc1`, the inhibition result in the assay with Rattus norvegicus [2] was “inactive”.

With `Cn1cc2c(n1)[C@H]1CCc3cn(C)nc3[C@@H]1CC2`, the inhibition result in the assay with Rattus norvegicus [2] was “inactive”.
